Data published in US20060004088A1, “Furan derivatives for preventing and curing osteoporosis and pharmaceutical compositions containing the same” (OCT INC., priority 2002, published 2006).
“Also recorded” adds a separate entry of the source.

Columns and labels:
[1] = tested on: osteoclast pregenitor cells; experiment: Inhibition rates of furan derivatives versus osteoclast formation (TRAP staining); assay type: cell-based, mice; conditions: TRAP-positive multinucleated cells, untreated control set as 100%
Method in brief: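 Non-adherent mouse bone-marrow osteoclast precursors cultured 8 days with 20 ng/ml M-CSF and 30 ng/ml RANKL in presence of compound. TRAP-positive cells with ≥3 nuclei counted; inhibition expressed relative to untreated control set at 100%.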

[2] = tested on: female white mice with osteoporosis induced by ovariectomy; experiment: Preventive effect 1 on osteoporosis, tibia histology, oral administration; assay type: in vivo; conditions: oral for four weeks immediately after ovariectomy
Experimental: In order to evaluate effects of the compound of the present invention on treatment and prevention of osteoporosis, female white mice with osteoporosis induced by ovariectomy were used as a disease model. After ovariectomy, mice were administered with the compound of the present invention. Tibias were dissected from the mice, and observed histologically.
After anesthetizing female white mice with 100 mg/kg of Ketamine (Ketara) and 0.15 ml/kg of 2% Xylazine (Rompun), the lumbar dorsum is shaved bilaterally and the exposed skin was prepared for aseptic surgery by a 10% povidone-iodine scrub followed by a 70% alcohol wipe.
A 1-cm incision was made in the central region of the abdomen, and the ovary was identified along with the uterus with caution not to damage the main organs such as the liver and diaphragm. After ligating the uterus with a thread for suturing, the exposed ovary was severed toward both sides and removed. Thereafter, each organ was relocated to its original position, and the incision was closed with a thread for suturing in an interrupted pattern. […]
The daily dosage of the Compound 1 per female white mouse was determined based on 250 g body weight. […] With caution not to exchange the water bottles between the groups, everyday, the number of mice was recorded, and the mixture was prepared based on the number of mice. […]

[3] = tested on: ovariectomized female white mice; experiment: Preventive effect on osteoporosis, bone mineral densitometer; assay type: in vivo; conditions: for Change in BMD, %: oral 10 mg per mouse
Experimental: After ovariectomy, female white mice weighing about 250 g were orally administered with 10 mg of the Compound 1 per mice for four weeks. Bone mineral density (BMD) was measured before the ovariectomy and every week during the administration of the Compound 1, using a bone mineral densitometer, XCT 540 Research SA made in Germany.
After anesthetizing the mice being bred in cages by intraperitoneal injection of a mixture of Ketamine HCl (ketara 10 mg/kg) and 2% xylazine HCl (Roupun 0.15 ml/kg), BMD measurement was made at a voxel size of 0.1×0.1 mm^2 and threshold value 280 mg/cm^2 for cancellous bone and 500 mg/cm^2 for compact bone. The analysis sites at the proximal tibias were determined by Scout scans (10 mm/sec), and BMD was measured at three slices at the determined sites by CT scans (7 mm/sec). BMD measurement was performed twice or more at the same every week during four weeks.

O=Cc1ccc(CO)o1 [Compound 1, 5-hydroxymethylfuran-2-carboxyaldehyde]
Inhibition rate against osteoclast formation, % ([1]; 0.1 μM): 0% | Inhibition rate against osteoclast formation, % ([1]; 1 μM): 0% | Inhibition rate against osteoclast formation, % ([1]; 10 μM): 30% | cortical and trabecular bone compared to the control group, 40× magnification [2]: marked increase in the cortical and trabecualr bone | trabecular bone loss in tibia, light microscopy ([2]; 10 mg/day, 12.5× and 40× magnification): such trabecular bone loss was not observed; also recorded: no trabecular bone loss | BMD after four weeks of administration compared to before ovariectomy (in words) ([3]; oral 10 mg/day for four weeks after ovariectomy): increase in BMD; also recorded: remarkably increased bone mineral density (BMD) | Change in BMD, % ([3]; week 1 after ovariectomy, control −7.5): −2.5% | Change in BMD, % ([3]; week 2 after ovariectomy, control −11.6): −3.2% | Change in BMD, % ([3]; week 3 after ovariectomy, control −14.9): −1.8% | Change in BMD, % ([3]; week 4 after ovariectomy, control −18.6): 3.7%
